In patent US8148362B2, “Compound having heterocyclic ring” (Research Foundation Itsuu Laboratory, priority 2006, dated 2012):

Assays:
S. aureus ATCC 700787 = test: MIC by CLSI standard method (Test Example 1); assay type: cell-based; conditions: Staphylococcus aureus, ATCC700787, cation-adjusted Mueller Hinton Broth, about 5×10^5 CFU/mL
Experimental: (§1) Minimal inhibitory concentration (MIC: μg/ml) against different strains of bacteria was assayed according to the standard method recommended by CLSI (clinical and laboratory standards institute). Samples were prepared from test compound solution in DMSO (1280 μg/mL) by two fold (serial) dilution with DMSO. The sample was added to bacteria suspension at the concentration of 5%, and MIC was determined. Mueller Hinton Broth, which has been adjusted for cation concentration, was used for culture media in this test. The inoculation concentration was about 5×10^5 CFU/mL.

E. faecalis ATCC 29212 [1] = test: MIC by CLSI standard method (Test Example 1); assay type: cell-based; conditions: Enterococcus faecalis, ATCC29212, cation-adjusted Mueller Hinton Broth, about 5×10^5 CFU/mL
Experimental: as §1

E. faecium SR7917 = test: MIC by CLSI standard method (Test Example 1); assay type: cell-based; conditions: Enterococcus faecium, cation-adjusted Mueller Hinton Broth, about 5×10^5 CFU/mL
Experimental: as §1

S. aureus FDA 209P [2] = test: MIC by CLSI standard method (Test Example 1); assay type: cell-based; conditions: Staphylococcus aureus, FDA209P, cation-adjusted Mueller Hinton Broth, about 5×10^5 CFU/mL
Experimental: as §1

E. faecalis SR7914 [3] = test: MIC by CLSI standard method (Test Example 1); assay type: cell-based; conditions: Enterococcus faecalis, cation-adjusted Mueller Hinton Broth, about 5×10^5 CFU/mL
Experimental: as §1

S. aureus smith = test: MIC by CLSI standard method (Test Example 1); assay type: cell-based; conditions: Staphylococcus aureus, cation-adjusted Mueller Hinton Broth, about 5×10^5 CFU/mL
Experimental: as §1

S. aureus SR3637 = test: MIC of quinolone compounds (Test Example 2); assay type: cell-based; conditions: Staphylococcus aureus, procedure of Test Example 1
Experimental: as §1
(§2) The quinolone compounds of the invention were tested for antimicrobial activity according to the procedure in Test Example 1.

E. faecalis ATCC 29212 [4] = test: MIC of quinolone compounds (Test Example 2); assay type: cell-based; conditions: Enterococcus faecalis, ATCC29212, procedure of Test Example 1
Experimental: as §1, §2

S. aureus FDA 209P [5] = test: MIC of quinolone compounds (Test Example 2); assay type: cell-based; conditions: Staphylococcus aureus, FDA209P, procedure of Test Example 1
Experimental: as §1, §2

E. faecalis SR7914 [6] = test: MIC of quinolone compounds (Test Example 2); assay type: cell-based; conditions: Enterococcus faecalis, procedure of Test Example 1
Experimental: as §1, §2

SMILES | MIC (S. aureus ATCC 700787) | MIC (E. faecalis ATCC 29212 [1]) | MIC (E. faecium SR7917) | MIC (S. aureus FDA 209P [2]) | MIC (E. faecalis SR7914 [3]) | MIC (S. aureus smith) | MIC (S. aureus SR3637) | MIC (E. faecalis ATCC 29212 [4]) | MIC (S. aureus FDA 209P [5]) | MIC (E. faecalis SR7914 [6]) | melting point
O=C(NC[C@H]1CN(c2cc(F)c(N3CCNN(C(=O)Nc4nccs4)CC3)c(F)c2)C(=O)O1)C(F)F [Example 84] | ≤ 1 µg/mL | ≤ 1 µg/mL | ≤ 1 µg/mL | ≤ 1 µg/mL | ≤ 1 µg/mL | ≤ 1 µg/mL |  |  |  |  | 
CC(=O)NC[C@H]1CN(c2cc(F)c(N3CCNN(C(=O)Nc4nccs4)CC3)c(F)c2)C(=O)O1 [Example 83] | ≤ 1 µg/mL | ≤ 1 µg/mL | ≤ 1 µg/mL | ≤ 1 µg/mL | ≤ 1 µg/mL | ≤ 1 µg/mL |  |  |  |  | 
COc1c(N2CCNOCC2)c(F)cc2c(=O)c(C(=O)O)cn(C3CC3)c12 [Compound (71)] |  |  |  |  |  |  | ≤ 1 µg/mL | ≤ 1 µg/mL | ≤ 1 µg/mL | ≤ 1 µg/mL | 222 to 224 °C
CC(=O)NC[C@H]1CN(c2cc(F)c(N3CCn4c(=O)c5cccnc5n4CC3)c(F)c2)C(=O)O1 [Example 81] | ≤ 1 µg/mL | ≤ 1 µg/mL | ≤ 1 µg/mL | ≤ 1 µg/mL | ≤ 1 µg/mL | ≤ 1 µg/mL |  |  |  |  | 

Other lines, results leading:

MIC (S. aureus ATCC 700787) | MIC (E. faecalis ATCC 29212 [1]) | MIC (E. faecium SR7917) | MIC (S. aureus FDA 209P [2]) | MIC (E. faecalis SR7914 [3]) | MIC (S. aureus smith) | MIC (S. aureus SR3637) | MIC (E. faecalis ATCC 29212 [4]) | MIC (S. aureus FDA 209P [5]) | MIC (E. faecalis SR7914 [6]) | melting point | SMILES
≤ 1 µg/mL | ≤ 1 µg/mL | ≤ 1 µg/mL | ≤ 1 µg/mL | ≤ 1 µg/mL | ≤ 1 µg/mL |  |  |  |  |  | CC(=O)NC[C@H]1CN(c2cc(F)c(N3CCNN(C(=O)Nc4ccncc4)CC3)c(F)c2)C(=O)O1 [Example 85]
≤ 1 µg/mL | ≤ 1 µg/mL | ≤ 1 µg/mL | ≤ 1 µg/mL | ≤ 1 µg/mL | ≤ 1 µg/mL |  |  |  |  |  | O=C(NC[C@H]1CN(c2cc(F)c(N3CCNN(C(=O)Nc4ccncc4)CC3)c(F)c2)C(=O)O1)C(F)F [Example 86]
≤ 1 µg/mL | ≤ 1 µg/mL | ≤ 1 µg/mL | ≤ 1 µg/mL | ≤ 1 µg/mL | ≤ 1 µg/mL |  |  |  |  |  | CC(=O)NC[C@H]1CN(c2cc(F)c(N3CCNN(C(=O)CO)CC3)c(F)c2)C(=O)O1 [Example 91]
≤ 1 µg/mL | ≤ 1 µg/mL | ≤ 1 µg/mL | ≤ 1 µg/mL | ≤ 1 µg/mL | ≤ 1 µg/mL |  |  |  |  |  | O=C(NC[C@H]1CN(c2cc(F)c(N3CCn4c(=O)c5cccnc5n4CC3)c(F)c2)C(=O)O1)C(F)F [Example 82]
